Test results: ChEMBL document CHEMBL1201862, “PubChem BioAssay data set” (2004)
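The compound was tested at five concentrations on cells cultured in 96-well plates, with a 48-hour exposure period. GI50: concentration for 50% inhibition of growth.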 The source made the active and inactive calls. Cut-off read from the data, not from the text of the source: active = GI50 up to about 1.1 µM and inactive = higher.

What was measured:
Experiment in all cases: NCI anticancer screen, dose series, 48 h
[1] = system: DU-145
[2] = system: SF-539
[3] = system: SK-MEL-28
[4] = system: BT-549
[5] = system: HCT-116
[6] = system: NCI-H226
[7] = system: MDA-MB-231
[8] = system: SNB-75
[9] = system: HL-60
[10] = system: K562
[11] = system: SN12C
[12] = system: MOLT-4
[13] = system: NCI/ADR-RES
[14] = system: ACHN
[15] = system: Hs-578T
[16] = system: OVCAR-4
[17] = system: A549
[18] = system: NCI-H460
[19] = system: HOP-62
[20] = system: HOP-92

| SMILES | GI50 [1] | GI50 [2] | GI50 [3] | GI50 [4] | GI50 [5] | GI50 [6] | GI50 [7] | GI50 [8] | GI50 [9] | GI50 [10] | GI50 [11] | GI50 [12] | GI50 [13] | GI50 [14] | GI50 [15] | GI50 [16] | GI50 [17] | GI50 [18] | GI50 [19] | GI50 [20] |
| --- | --- | --- | --- | --- | --- | --- | --- | --- | --- | --- | --- | --- | --- | --- | --- | --- | --- | --- | --- | --- |
| O=C(c1cccs1)N(C(=O)N1CCCCC1)c1ccccc1 | > 100 µM (inactive) | > 100 µM (inactive) | > 100 µM (inactive) | > 100 µM (inactive) | > 100 µM (inactive) | > 100 µM (inactive) | > 100 µM (inactive) | 3.28 µM (inactive) | > 100 µM (inactive) | > 100 µM (inactive) | > 100 µM (inactive) | > 100 µM (inactive) | > 100 µM (inactive) | > 100 µM (inactive) | 84.7 µM (inactive) | – | – | – | – | – |
| CC(=O)Nc1ccc2nc(N)n[n+]([O-])c2c1 | > 100 µM (inactive) | > 100 µM (inactive) | > 100 µM (inactive) | > 100 µM (inactive) | > 100 µM (inactive) | > 100 µM (inactive) | > 100 µM (inactive) | 41.4 µM (inactive) | > 100 µM (inactive) | > 100 µM (inactive) | > 100 µM (inactive) | > 100 µM (inactive) | > 100 µM (inactive) | > 100 µM (inactive) | 92.3 µM (inactive) | > 100 µM (inactive) | > 100 µM (inactive) | > 100 µM (inactive) | > 100 µM (inactive) | – |
| O=C(O)c1nc(-c2ccccc2)ncc1-c1nnnn1-c1ccccc1 | > 100 µM (inactive) | > 100 µM (inactive) | > 100 µM (inactive) | > 100 µM (inactive) | > 100 µM (inactive) | > 100 µM (inactive) | > 100 µM (inactive) | > 100 µM (inactive) | > 100 µM (inactive) | > 100 µM (inactive) | > 100 µM (inactive) | > 100 µM (inactive) | > 100 µM (inactive) | > 100 µM (inactive) | > 100 µM (inactive) | – | > 100 µM (inactive) | > 100 µM (inactive) | > 100 µM (inactive) | > 100 µM (inactive) |
| CC1OC(OC2C(CO)OC(O[C@H]3CC[C@@]4(C)C(=CC[C@H]5[C@@H]6C[C@@H]7O[C@](O)(CC[C@H](CO)COC8OC(CO)C(O)C(O)C8O)[C@@H](C)[C@@H]7[C@@]6(C)CC[C@@H]54)C3)C(OC3OC(C)C(O)C(O)C3O)C2O)C(O)C(O)C1O (stereo partly specified) | > 100 µM (inactive) | > 100 µM (inactive) | > 100 µM (inactive) | > 100 µM (inactive) | > 100 µM (inactive) | – | > 100 µM (inactive) | > 100 µM (inactive) | – | > 100 µM (inactive) | > 100 µM (inactive) | > 100 µM (inactive) | 91.4 µM (inactive) | > 100 µM (inactive) | > 100 µM (inactive) | > 100 µM (inactive) | > 100 µM (inactive) | > 100 µM (inactive) | > 100 µM (inactive) | > 100 µM (inactive) |
| COc1cc(/C=C2\N=C(c3ccccc3)N(/N=C/c3cc4cc(C)ccc4nc3Cl)C2=O)cc(OC)c1OC | 30.4 µM (inactive) | 23.4 µM (inactive) | 91.6 µM (inactive) | 52.2 µM (inactive) | 33.7 µM (inactive) | – | 23.1 µM (inactive) | 17.1 µM (inactive) | 10.5 µM (inactive) | 35 µM (inactive) | 61.8 µM (inactive) | 20.6 µM (inactive) | 28 µM (inactive) | 34.2 µM (inactive) | 29.4 µM (inactive) | 37.5 µM (inactive) | 36.4 µM (inactive) | 29.4 µM (inactive) | 58.7 µM (inactive) | 54.6 µM (inactive) |
| Nc1cc(N)c(/N=N/c2cccc3c(S(=O)(=O)O)cccc23)cc1/N=N/c1cc([N+](=O)[O-])ccc1O | 30.3 µM (inactive) | 38 µM (inactive) | – | 31.6 µM (inactive) | 32.7 µM (inactive) | – | 14.6 µM (inactive) | 49.1 µM (inactive) | – | 38.7 µM (inactive) | 32.3 µM (inactive) | 20.3 µM (inactive) | 21.9 µM (inactive) | 22.2 µM (inactive) | 36.8 µM (inactive) | 18.4 µM (inactive) | 25.5 µM (inactive) | 29.1 µM (inactive) | 29.9 µM (inactive) | 35.6 µM (inactive) |
| O=C(CSC1=NCCN1)Nc1ccccc1 | 33.7 µM (inactive) | – | 26.3 µM (inactive) | 24.5 µM (inactive) | 23.8 µM (inactive) | – | 20.6 µM (inactive) | 21.5 µM (inactive) | – | 40.6 µM (inactive) | 17.5 µM (inactive) | 52.1 µM (inactive) | 26.4 µM (inactive) | 22.4 µM (inactive) | 28.1 µM (inactive) | 65.8 µM (inactive) | > 100 µM (inactive) | 31.1 µM (inactive) | 48 µM (inactive) | 26.8 µM (inactive) |
| C[C@H](N)C(=O)N[C@@H]1[C@H]2C(=C(O)C[C@@H](O)[C@@H]2O)C(=O)O[C@]1(C)C(Cl)Cl [BACTOBOLIN] | 0.182 µM (active) | 0.229 µM (active) | 0.234 µM (active) | 0.165 µM (active) | 0.145 µM (active) | 0.195 µM (active) | 0.156 µM (active) | 0.185 µM (active) | – | – | 0.164 µM (active) | – | 3.36 µM (inactive) | 0.176 µM (active) | 0.125 µM (active) | 0.133 µM (active) | 0.187 µM (active) | 0.111 µM (active) | 0.152 µM (active) | 0.111 µM (active) |
| Cc1ccc2nc(Cl)c(/C=N/N3C(=O)/C(=C/c4ccc(N(C)C)cc4)N=C3c3ccccc3)cc2c1 | 80 µM (inactive) | 18.2 µM (inactive) | > 100 µM (inactive) | > 100 µM (inactive) | 39.4 µM (inactive) | – | 38.9 µM (inactive) | 24 µM (inactive) | 32.4 µM (inactive) | 59.4 µM (inactive) | 80.7 µM (inactive) | 24.4 µM (inactive) | 32.7 µM (inactive) | 76.9 µM (inactive) | 40.1 µM (inactive) | 70 µM (inactive) | 37.8 µM (inactive) | 37.5 µM (inactive) | 42.8 µM (inactive) | 71.3 µM (inactive) |
| O=C(O)c1ccccn1 [2-PICOLINIC ACID] | – | > 100 µM (inactive) | > 100 µM (inactive) | > 100 µM (inactive) | > 100 µM (inactive) | > 100 µM (inactive) | > 100 µM (inactive) | > 100 µM (inactive) | – | > 100 µM (inactive) | > 100 µM (inactive) | > 100 µM (inactive) | > 100 µM (inactive) | > 100 µM (inactive) | > 100 µM (inactive) | > 100 µM (inactive) | > 100 µM (inactive) | > 100 µM (inactive) | > 100 µM (inactive) | > 100 µM (inactive) |
| CC(C)(C)C(=O)C(N)C(=O)C(C)(C)C | > 100 µM (inactive) | > 100 µM (inactive) | > 100 µM (inactive) | > 100 µM (inactive) | > 100 µM (inactive) | – | > 100 µM (inactive) | > 100 µM (inactive) | > 100 µM (inactive) | > 100 µM (inactive) | > 100 µM (inactive) | 9.57 µM (inactive) | > 100 µM (inactive) | > 100 µM (inactive) | > 100 µM (inactive) | > 100 µM (inactive) | > 100 µM (inactive) | > 100 µM (inactive) | > 100 µM (inactive) | > 100 µM (inactive) |
| c1ccc2c(c1)nnn2CN1CCOCC1 | – | – | > 100 µM (inactive) | > 100 µM (inactive) | > 100 µM (inactive) | > 100 µM (inactive) | > 100 µM (inactive) | – | 29.2 µM (inactive) | 45 µM (inactive) | 39.8 µM (inactive) | 35.6 µM (inactive) | > 100 µM (inactive) | > 100 µM (inactive) | 19.2 µM (inactive) | > 100 µM (inactive) | > 100 µM (inactive) | 46.3 µM (inactive) | > 100 µM (inactive) | 45.8 µM (inactive) |
| CCCn1cnc2c(SCc3ccc(Cl)cc3)nc(N)nc21 | 36.6 µM (inactive) | – | 29 µM (inactive) | 29.1 µM (inactive) | 19.4 µM (inactive) | – | 16.9 µM (inactive) | 21.9 µM (inactive) | 18.2 µM (inactive) | 16.2 µM (inactive) | 19.7 µM (inactive) | – | 22.6 µM (inactive) | 16.3 µM (inactive) | 47.2 µM (inactive) | 32.7 µM (inactive) | 39.4 µM (inactive) | 18.7 µM (inactive) | 17.3 µM (inactive) | 44.5 µM (inactive) |
| COc1ccc(S(=O)(=O)n2c3c(c4ccccc42)[C@@H]2[C@@H](CCCN2C(=O)C[S+]([O-])c2ccc(C)cc2)[C@H](Cl)C3)cc1 (stereo partly specified) | > 100 µM (inactive) | > 100 µM (inactive) | > 100 µM (inactive) | 5.83 µM (inactive) | > 100 µM (inactive) | > 100 µM (inactive) | > 100 µM (inactive) | > 100 µM (inactive) | 99.8 µM (inactive) | > 100 µM (inactive) | > 100 µM (inactive) | > 100 µM (inactive) | > 100 µM (inactive) | – | > 100 µM (inactive) | – | > 100 µM (inactive) | > 100 µM (inactive) | > 100 µM (inactive) | > 100 µM (inactive) |
| Cc1cc(S(=O)(=O)n2ccnc2O)c(SCCCN(C)C)cc1Cl | > 100 µM (inactive) | > 100 µM (inactive) | > 100 µM (inactive) | > 100 µM (inactive) | > 100 µM (inactive) | > 100 µM (inactive) | > 100 µM (inactive) | – | – | > 100 µM (inactive) | > 100 µM (inactive) | > 100 µM (inactive) | > 100 µM (inactive) | > 100 µM (inactive) | > 100 µM (inactive) | > 100 µM (inactive) | > 100 µM (inactive) | > 100 µM (inactive) | > 100 µM (inactive) | – |
